# Assay results from patent publication US5446060A, “Aminoalkyl thienyl ketone derivatives and their use as peripheral vasodilators” (Laboratoire L. Lafon, priority 1990, dated 1995).
# Where a name gives a salt, the structure may show the parent alone. Read-outs that look alike come from different tables or passages of the source.
# Tests used:
# Solubility in water = assay type: physicochemical; settings: for solubility: read-out: solubility in water (concentration)
# femoral flow rate = experiment: Cardiovascular activity, compounds administered intravenously in anaesthetised dogs (femoral flow rate); assay type: in vivo; settings: intravenous; for increase in femoral flow rate: 4 mg/kg; for minimal effective dose: Canis lupus familiaris, read-out: dose at and above which femoral flow rate is significantly increased
# Description: (§1) The activity of the compounds administered intravenously was studied in anaesthetised dogs.
# arterial blood pressure = experiment: Cardiovascular activity, compounds administered intravenously in anaesthetised dogs (arterial blood pressure); assay type: in vivo; settings: intravenous
# Description: as §1
# [1] = tested on: microcirculation of the chamber of the rabbit's ear; experiment: Activity with respect to the microcirculation of the chamber of the rabbit's ear; assay type: in vivo; settings: 1 mg/kg I.V.
# Description: The activity of the compounds administered intravenously with respect to the microcirculation of the chamber of the rabbit's ear was studied.
# [2] = Acute toxicity determined orally in mice; settings: mouse, in vivo; oral, mice (NMRI)
# Method: The acute toxicity was determined orally in mice (NMRI).
# ATP in fresh blood = experiment: Effects on ATP in fresh blood measured ex vivo by 31P NMR spectroscopy
# Method: The effects of the compounds on the ATP in fresh blood were measured ex vivo by ^31 p NMR spectroscopy.
# The results are given in the table below in the form of percentage changes.
structure (smiles),measurement,setting,value
"O=C(CCCN1CCCC1)c1cccs1 [Example 1, 4-pyrrolidino-l-(2-thienyl)butanone hydrochloride]",solubility,Solubility in water,200 mg/mL
same,increase in femoral flow rate,femoral flow rate,170%
same,minimal effective dose,femoral flow rate,≥ 1 mg/kg
same,change in arterial blood pressure,arterial blood pressure; even at 4 mg/kg,no significant change
same,increase in non-terminal arteriolar diameter,[1],significant and long-lasting increase
same,LD50,[2],121 ± 10 mg/kg
same,percentage change in αATP,ATP in fresh blood,+41.4%
same,percentage change in βATP,ATP in fresh blood,+31.2%
same,percentage change in γATP,ATP in fresh blood,+36.7%
"O=C(CCCN1CCCCC1)c1cccs1 [Example 2, 4-piperidino-l-(2-thienyl)butanone hydrochloride]",solubility in water (in words),Solubility in water; hydrochloride,water-soluble
same,increase in femoral flow rate compared with buflomedil at 4 mg/kg,femoral flow rate; 2 mg/kg,same intensity as buflomedil at a dose of 4 mg/kg
same,minimal effective dose,femoral flow rate,≥ 1 mg/kg
same,duration of effect on femoral flow rate compared with buflomedil,femoral flow rate,longer-lasting than that of buflomedil
same,change in arterial blood pressure,arterial blood pressure; 2 mg/kg,without modifying arterial blood pressure
same,LD50,[2],235 ± 35 mg/kg
"CC1CCCN(CCCC(=O)c2cccs2)C1 (stereo not drawn) [Example 3, 4-(3-methylpiperidino)-1-(2-thienyl)butanone hydrochloride]",solubility,Solubility in water,200 mg/mL
same,LD50,[2],207 ± 29 mg/kg
same,percentage change in αATP,ATP in fresh blood,+54.2%
same,percentage change in βATP,ATP in fresh blood,+54.6%
same,percentage change in γATP,ATP in fresh blood,+34.7%
"O=C(CCCN1CCOCC1)c1cccs1 [Example 4, 4-morpholino-l-(2-thienyl)butanone hydrochloride]",solubility in water (in words),Solubility in water,water-soluble
"O=C(CCCN1CCCC(CO)C1)c1cccs1 (stereo not drawn) [Example 5, 4-[3-(hydroxymethyl)piperidino]-1-(2-thienyl) butanone hydrochloride]",solubility in water (in words),Solubility in water,water-soluble
"O=C(CCCn1ccnc1)c1cccs1 [Example 6, 4-(1-imidazolyl)-1-(2-thienyl)butanone hydrochloride]",solubility in water (in words),Solubility in water,water-soluble
"O=C(CCCN1CCCCCC1)c1cccs1 [Example 7, 4-hexamethylenimino-1-(2-thienyl)butanone hydrochloride]",solubility in water (in words),Solubility in water,watersoluble
same,increase in femoral flow rate (in words),femoral flow rate; 1.14 mg/kg and above,significant and longlasting increase
same,minimal effective dose,femoral flow rate,≥ 1.14 mg/kg
same,increase in femoral flow rate compared with buflomedil at 4 mg/kg,femoral flow rate; dose of 1.14 mg/kg and above,larger than that observed with buflomedil at a dose of 4 mg/kg
same,increase in non-terminal arteriolar diameter,[1],significant and long-lasting increase
same,LD50,[2],131 ± 15 mg/kg
"O=C(CCCN1CCCC1)c1ccsc1 [Example 8, 4-pyrrolidino-1-(3-thienyl)butanone hydrochloride]",solubility in water (in words),Solubility in water,water-soluble
"O=C(CCCN1CCCCCC1)c1ccsc1 [Example 9, 4-hexamethylenimino-1-(3-thienyl)butanone hydrochloride]",solubility in water (in words),Solubility in water,water-soluble
"CC1CCCN(CCCC(=O)c2ccsc2)C1 (stereo not drawn) [Example 10, 4-(3-methylpiperidino)-1-(3thienyl)butanone hydrochloride]",solubility in water (in words),Solubility in water,water-soluble
"O=C(CCCN1CCCC1)c1cccs1 [Example 11, 4-pyrrolidino-1-(2-thienyl)butanone 2,4,6-trimethoxybenzoate]",solubility in water (in words),Solubility in water,soluble in water on heating
"O=C(CCCN1CCCCC1)c1cccs1 [Example 12, 4-piperidino-1-(2-thienyl)butanone 2,4,6-trimethoxybenzoate]",solubility in water (in words),Solubility in water,soluble in water on heating
"COc1cc(OC)c(C(=O)CCCN2CCCC2)c(OC)c1 [buflomedil, reference compound]",increase in femoral flow rate,femoral flow rate,106%
same,change in ATP level,ATP in fresh blood,did not reveal any change in ATP level
